The kinase profiling compilation of Christmann-Franck et al. (2016)

Tests used:
Test in all cases: radiometric filter-binding kinase assay, Kinase HotSpot
Settings in all cases: compound 0.5 µM; ATP 10 µM
PRKCI (human) = PRKCI (human) (UniProt P41743)
MAP4K4 (human) = MAP4K4 (human) (UniProt O95819)
STK24 (human) = STK24 (human) (UniProt Q9Y6E0)
FGFR3 (human) = FGFR3 (human) (UniProt P22607)
DYRK1B (human) = DYRK1B (human) (UniProt Q9Y463)
ROCK1 (human) = ROCK1 (human) (UniProt Q13464)
PRKCB1 (human) = PRKCB1 (human) (UniProt P05771)
Chain of PRKCB1 (human) (P05771 whole entry, looked up): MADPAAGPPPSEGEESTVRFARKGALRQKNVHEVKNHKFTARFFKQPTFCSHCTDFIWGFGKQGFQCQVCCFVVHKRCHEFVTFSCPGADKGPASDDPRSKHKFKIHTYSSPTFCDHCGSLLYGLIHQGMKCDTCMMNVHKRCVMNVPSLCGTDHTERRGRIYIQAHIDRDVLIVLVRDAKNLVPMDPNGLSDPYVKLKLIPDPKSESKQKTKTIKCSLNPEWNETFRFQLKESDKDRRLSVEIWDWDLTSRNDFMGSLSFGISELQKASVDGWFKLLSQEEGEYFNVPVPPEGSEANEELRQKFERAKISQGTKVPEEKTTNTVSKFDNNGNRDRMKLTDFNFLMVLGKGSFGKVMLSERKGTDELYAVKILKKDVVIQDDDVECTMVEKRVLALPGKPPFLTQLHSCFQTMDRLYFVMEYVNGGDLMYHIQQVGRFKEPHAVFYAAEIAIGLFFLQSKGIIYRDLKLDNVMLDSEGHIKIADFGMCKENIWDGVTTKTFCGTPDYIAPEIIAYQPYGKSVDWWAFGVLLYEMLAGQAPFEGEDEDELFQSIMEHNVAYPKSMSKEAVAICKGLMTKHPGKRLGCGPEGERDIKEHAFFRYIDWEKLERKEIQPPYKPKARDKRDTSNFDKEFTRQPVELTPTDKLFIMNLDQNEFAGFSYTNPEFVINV

HIPK4 (human) = HIPK4 (human) (UniProt Q8NE63)
FGR (human) = FGR (human) (UniProt P09769)
CHEK2 (human) = CHEK2 (human) (UniProt O96017)
BMX (human) = BMX (human) (UniProt P51813)
SGK3 (human) = SGK3 (human) (UniProt Q96BR1)
WEE1 (human) = WEE1 (human) (UniProt P30291)
GSK3B (human) = GSK3B (human) (UniProt P49841)
Chain of GSK3B (human) (P49841 whole entry, looked up): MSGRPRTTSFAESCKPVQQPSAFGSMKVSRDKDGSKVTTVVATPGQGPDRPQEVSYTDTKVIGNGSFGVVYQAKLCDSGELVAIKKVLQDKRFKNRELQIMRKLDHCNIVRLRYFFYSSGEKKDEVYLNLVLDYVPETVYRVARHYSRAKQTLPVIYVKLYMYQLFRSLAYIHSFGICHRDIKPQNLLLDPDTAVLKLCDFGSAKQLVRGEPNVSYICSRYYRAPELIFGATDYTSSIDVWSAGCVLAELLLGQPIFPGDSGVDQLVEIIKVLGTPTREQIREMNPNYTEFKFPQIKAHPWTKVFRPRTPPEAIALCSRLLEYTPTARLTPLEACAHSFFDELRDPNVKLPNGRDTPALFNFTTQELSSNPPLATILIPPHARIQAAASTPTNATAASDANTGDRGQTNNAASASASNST

JAK2 JH1 JH2 (human) = JAK2 JH1 JH2 (human) (UniProt O60674)
CDK6 CCND3 (human) = CDK6 CCND3 (human) (UniProt P30281+Q00534)
NEK11 (human) = NEK11 (human) (UniProt Q8NG66)
SLK (human) = SLK (human) (UniProt Q9H2G2)
Chain of SLK (human) (Q9H2G2 whole entry, looked up): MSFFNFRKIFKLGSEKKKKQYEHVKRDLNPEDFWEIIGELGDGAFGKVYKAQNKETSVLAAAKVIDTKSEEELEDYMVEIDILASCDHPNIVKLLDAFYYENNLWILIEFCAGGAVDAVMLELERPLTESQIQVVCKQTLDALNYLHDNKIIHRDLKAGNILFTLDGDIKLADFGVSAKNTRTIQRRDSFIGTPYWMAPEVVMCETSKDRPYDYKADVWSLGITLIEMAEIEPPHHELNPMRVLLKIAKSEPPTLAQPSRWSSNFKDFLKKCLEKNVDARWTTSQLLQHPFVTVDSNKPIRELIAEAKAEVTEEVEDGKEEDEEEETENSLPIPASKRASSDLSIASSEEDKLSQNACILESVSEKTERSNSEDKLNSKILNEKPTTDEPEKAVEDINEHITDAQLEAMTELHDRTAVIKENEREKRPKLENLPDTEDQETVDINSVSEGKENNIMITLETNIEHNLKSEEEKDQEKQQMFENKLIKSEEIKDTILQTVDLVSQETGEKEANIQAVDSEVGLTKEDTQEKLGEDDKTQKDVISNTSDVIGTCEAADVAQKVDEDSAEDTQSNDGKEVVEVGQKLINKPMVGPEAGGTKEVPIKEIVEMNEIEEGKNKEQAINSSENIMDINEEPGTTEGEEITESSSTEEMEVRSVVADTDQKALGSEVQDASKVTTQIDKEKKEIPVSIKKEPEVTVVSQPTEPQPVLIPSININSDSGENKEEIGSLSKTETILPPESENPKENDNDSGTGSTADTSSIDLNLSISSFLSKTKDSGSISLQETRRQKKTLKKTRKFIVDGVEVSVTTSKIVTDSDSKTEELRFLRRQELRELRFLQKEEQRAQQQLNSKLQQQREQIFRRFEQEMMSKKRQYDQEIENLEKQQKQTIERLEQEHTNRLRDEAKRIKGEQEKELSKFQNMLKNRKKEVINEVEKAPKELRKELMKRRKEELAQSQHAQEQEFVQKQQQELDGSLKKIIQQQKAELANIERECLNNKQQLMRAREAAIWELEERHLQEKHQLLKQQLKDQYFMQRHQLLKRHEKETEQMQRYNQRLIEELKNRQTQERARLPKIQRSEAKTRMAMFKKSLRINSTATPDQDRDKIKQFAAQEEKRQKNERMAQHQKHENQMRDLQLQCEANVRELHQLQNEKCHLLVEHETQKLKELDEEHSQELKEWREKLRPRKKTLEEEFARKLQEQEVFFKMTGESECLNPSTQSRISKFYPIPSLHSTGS

AURKA (human) = AURKA (human) (UniProt O14965)
CSK (human) = CSK (human) (UniProt P41240)
GRK6 (human) = GRK6 (human) (UniProt P43250)
CSNK2A2 (human) = CSNK2A2 (human) (UniProt P19784)
DMPK (human) = DMPK (human) (UniProt Q09013)
DAPK3 (human) = DAPK3 (human) (UniProt O43293)
MAP3K10 (human) = MAP3K10 (human) (UniProt Q02779)
MERTK (human) = MERTK (human) (UniProt Q12866)
FRK (human) = FRK (human) (UniProt P42685)
FES (human) = FES (human) (UniProt P07332)
PRKCH (human) = PRKCH (human) (UniProt P24723)
Chain of PRKCH (human) (P24723 whole entry, looked up): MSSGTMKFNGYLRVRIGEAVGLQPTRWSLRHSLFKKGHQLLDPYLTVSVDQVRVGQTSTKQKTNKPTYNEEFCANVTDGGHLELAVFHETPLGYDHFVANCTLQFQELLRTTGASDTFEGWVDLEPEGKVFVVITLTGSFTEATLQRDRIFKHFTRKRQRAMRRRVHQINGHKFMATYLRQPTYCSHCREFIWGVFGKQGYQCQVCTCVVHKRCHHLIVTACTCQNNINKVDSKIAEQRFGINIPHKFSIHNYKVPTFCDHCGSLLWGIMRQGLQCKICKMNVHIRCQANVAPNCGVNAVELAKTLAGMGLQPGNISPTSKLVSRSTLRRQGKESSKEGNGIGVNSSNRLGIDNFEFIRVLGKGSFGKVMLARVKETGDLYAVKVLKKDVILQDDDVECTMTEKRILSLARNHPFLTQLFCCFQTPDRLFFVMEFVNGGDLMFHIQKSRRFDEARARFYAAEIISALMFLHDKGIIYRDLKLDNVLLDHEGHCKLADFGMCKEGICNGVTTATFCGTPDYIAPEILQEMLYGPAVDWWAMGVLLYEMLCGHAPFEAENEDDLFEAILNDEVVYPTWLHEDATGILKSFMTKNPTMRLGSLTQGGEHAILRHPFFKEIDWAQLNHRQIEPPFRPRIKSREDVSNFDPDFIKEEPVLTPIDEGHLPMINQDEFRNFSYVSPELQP

STK4 (human) = STK4 (human) (UniProt Q13043)
PRKCD (human) = PRKCD (human) (UniProt Q05655)
BRSK2 (human) = BRSK2 (human) (UniProt Q8IWQ3)
NEK4 (human) = NEK4 (human) (UniProt P51957)
NTRK2 (human) = NTRK2 (human) (UniProt Q16620)
NEK1 (human) = NEK1 (human) (UniProt Q96PY6)
STK10 (human) = STK10 (human) (UniProt O94804)
CLK2 (human) = CLK2 (human) (UniProt P49760)
EPHA5 (human) = EPHA5 (human) (UniProt P54756)
CSNK1D (human) = CSNK1D (human) (UniProt P48730)
HIPK2 (human) = HIPK2 (human) (UniProt Q9H2X6)
TEC (human) = TEC (human) (UniProt P42680)
ERBB2 (human) = ERBB2 (human) (UniProt P04626)

Chain of STK24 (human) (Q9Y6E0 whole entry, looked up): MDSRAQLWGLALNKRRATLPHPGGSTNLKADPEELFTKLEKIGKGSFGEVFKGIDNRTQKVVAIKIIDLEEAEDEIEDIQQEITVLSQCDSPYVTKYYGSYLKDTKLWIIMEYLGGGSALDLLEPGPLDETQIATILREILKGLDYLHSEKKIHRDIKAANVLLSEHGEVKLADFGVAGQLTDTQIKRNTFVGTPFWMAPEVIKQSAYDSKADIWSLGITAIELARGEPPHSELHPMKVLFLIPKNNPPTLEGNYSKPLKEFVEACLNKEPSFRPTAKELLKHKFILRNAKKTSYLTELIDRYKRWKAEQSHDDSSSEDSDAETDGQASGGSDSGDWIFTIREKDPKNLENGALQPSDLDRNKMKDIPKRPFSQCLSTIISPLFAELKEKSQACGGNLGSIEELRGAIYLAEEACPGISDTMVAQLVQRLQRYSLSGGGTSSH
Chain of PRKCI (human) (P41743 whole entry, looked up): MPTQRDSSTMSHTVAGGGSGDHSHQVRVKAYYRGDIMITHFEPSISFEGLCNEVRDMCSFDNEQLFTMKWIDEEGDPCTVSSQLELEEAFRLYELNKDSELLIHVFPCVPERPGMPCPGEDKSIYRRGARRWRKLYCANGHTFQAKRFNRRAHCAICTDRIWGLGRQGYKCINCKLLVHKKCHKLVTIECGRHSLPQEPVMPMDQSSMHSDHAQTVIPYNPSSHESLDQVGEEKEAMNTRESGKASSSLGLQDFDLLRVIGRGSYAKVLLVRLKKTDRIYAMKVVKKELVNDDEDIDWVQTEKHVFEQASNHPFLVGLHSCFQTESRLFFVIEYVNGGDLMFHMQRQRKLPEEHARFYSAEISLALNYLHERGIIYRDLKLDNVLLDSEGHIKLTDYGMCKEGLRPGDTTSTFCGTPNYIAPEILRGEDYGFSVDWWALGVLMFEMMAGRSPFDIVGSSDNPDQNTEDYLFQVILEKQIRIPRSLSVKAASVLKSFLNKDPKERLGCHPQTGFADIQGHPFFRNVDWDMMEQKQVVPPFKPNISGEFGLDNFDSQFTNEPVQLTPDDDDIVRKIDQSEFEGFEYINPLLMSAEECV
Chain of FGFR3 (human) (P22607 whole entry, looked up): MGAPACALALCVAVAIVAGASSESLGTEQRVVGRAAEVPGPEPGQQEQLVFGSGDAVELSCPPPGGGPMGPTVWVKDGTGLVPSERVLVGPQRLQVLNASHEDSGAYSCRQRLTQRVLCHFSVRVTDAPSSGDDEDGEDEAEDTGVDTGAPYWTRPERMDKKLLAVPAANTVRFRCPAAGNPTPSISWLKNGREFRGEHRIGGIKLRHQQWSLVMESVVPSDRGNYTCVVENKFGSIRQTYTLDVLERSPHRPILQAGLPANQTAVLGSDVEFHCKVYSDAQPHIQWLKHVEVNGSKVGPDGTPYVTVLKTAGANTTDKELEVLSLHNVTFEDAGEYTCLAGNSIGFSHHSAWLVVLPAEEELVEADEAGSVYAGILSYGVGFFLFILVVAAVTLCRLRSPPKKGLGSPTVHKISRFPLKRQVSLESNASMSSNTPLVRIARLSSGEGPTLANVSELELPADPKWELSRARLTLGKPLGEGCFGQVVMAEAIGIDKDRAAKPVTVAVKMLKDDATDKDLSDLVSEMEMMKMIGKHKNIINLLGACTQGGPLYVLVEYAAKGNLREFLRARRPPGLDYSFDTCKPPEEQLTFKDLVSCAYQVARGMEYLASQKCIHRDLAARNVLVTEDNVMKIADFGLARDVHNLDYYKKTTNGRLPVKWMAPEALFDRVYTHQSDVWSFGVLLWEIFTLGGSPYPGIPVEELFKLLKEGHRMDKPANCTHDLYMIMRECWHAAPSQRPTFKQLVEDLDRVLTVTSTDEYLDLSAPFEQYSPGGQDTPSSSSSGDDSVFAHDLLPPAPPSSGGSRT

Compound: O=c1c2ccccc2[nH]c(=S)n1CCN1CCC(=C(c2ccc(F)cc2)c2ccc(F)cc2)CC1
- residual activity (PRKCI (human)): 96.3%
- residual activity (MAP4K4 (human)): 99.8%
- residual activity (STK24 (human)): 93.4%
- residual activity (FGFR3 (human)): 99.3%
- residual activity (DYRK1B (human)): 97.1%
- residual activity (ROCK1 (human)): 97.2%
- residual activity (PRKCB1 (human)): 96%
- residual activity (HIPK4 (human)): 98.4%
- residual activity (FGR (human)): 95.4%
- residual activity (CHEK2 (human)): 106%
- residual activity (BMX (human)): 85.5%
- residual activity (SGK3 (human)): 114%
- residual activity (WEE1 (human)): 93%
- residual activity (GSK3B (human)): 112%
- residual activity (JAK2 JH1 JH2 (human)): 92%
- residual activity (CDK6 CCND3 (human)): 98.2%
- residual activity (NEK11 (human)): 94%
- residual activity (SLK (human)): 103%
- residual activity (AURKA (human)): 100%
- residual activity (CSK (human)): 119%
- residual activity (GRK6 (human)): 111%
- residual activity (CSNK2A2 (human)): 97.7%
- residual activity (DMPK (human)): 108%
- residual activity (DAPK3 (human)): 102%
- residual activity (MAP3K10 (human)): 99.6%
- residual activity (MERTK (human)): 97%
- residual activity (FRK (human)): 100%
- residual activity (FES (human)): 94.9%
- residual activity (PRKCH (human)): 102%
- residual activity (STK4 (human)): 103%
- residual activity (PRKCD (human)): 95.7%
- residual activity (BRSK2 (human)): 99.8%
- residual activity (NEK4 (human)): 99.1%
- residual activity (NTRK2 (human)): 106%
- residual activity (NEK1 (human)): 109%
- residual activity (STK10 (human)): 96.2%
- residual activity (CLK2 (human)): 87.8%
- residual activity (EPHA5 (human)): 112%
- residual activity (CSNK1D (human)): 100%
- residual activity (HIPK2 (human)): 105%
- residual activity (TEC (human)): 110%
- residual activity (ERBB2 (human)): 98.8%

Compound: FC(F)(F)c1ccc(/C=C/c2nc(COc3ccc(CCCCn4ccnn4)cc3)co2)cc1
- residual activity (PRKCI (human)): 92.6%
- residual activity (MAP4K4 (human)): 95.1%
- residual activity (STK24 (human)): 101%
- residual activity (FGFR3 (human)): 88.4%
- residual activity (DYRK1B (human)): 96.7%
- residual activity (ROCK1 (human)): 100%
- residual activity (PRKCB1 (human)): 103%
- residual activity (HIPK4 (human)): 105%
- residual activity (FGR (human)): 92.6%
- residual activity (CHEK2 (human)): 103%
- residual activity (BMX (human)): 99%
- residual activity (SGK3 (human)): 89.2%
- residual activity (WEE1 (human)): 101%
- residual activity (GSK3B (human)): 100%
- residual activity (JAK2 JH1 JH2 (human)): 98.9%
- residual activity (CDK6 CCND3 (human)): 90%
- residual activity (NEK11 (human)): 97.6%
- residual activity (SLK (human)): 92.8%
- residual activity (AURKA (human)): 111%
- residual activity (CSK (human)): 106%
- residual activity (GRK6 (human)): 104%
- residual activity (CSNK2A2 (human)): 102%
- residual activity (DMPK (human)): 101%
- residual activity (DAPK3 (human)): 105%
- residual activity (MAP3K10 (human)): 98.9%
- residual activity (MERTK (human)): 97.9%
- residual activity (FRK (human)): 99%
- residual activity (FES (human)): 102%
- residual activity (PRKCH (human)): 87.6%
- residual activity (STK4 (human)): 97.5%
- residual activity (PRKCD (human)): 99.6%
- residual activity (BRSK2 (human)): 99.6%
- residual activity (NEK4 (human)): 90%
- residual activity (NTRK2 (human)): 102%
- residual activity (NEK1 (human)): 94.5%
- residual activity (STK10 (human)): 92.6%
- residual activity (CLK2 (human)): 89.6%
- residual activity (EPHA5 (human)): 99.9%
- residual activity (CSNK1D (human)): 96.6%
- residual activity (HIPK2 (human)): 90.2%
- residual activity (TEC (human)): 86.4%
- residual activity (ERBB2 (human)): 102%

Compound: COc1cc2c(N3CCN(C(=O)Nc4ccc(OC(C)C)cc4)CC3)ncnc2cc1OCCCN1CCCCC1
- residual activity (PRKCI (human)): 96.2%
- residual activity (MAP4K4 (human)): 96.6%
- residual activity (STK24 (human)): 102%
- residual activity (FGFR3 (human)): 93.2%
- residual activity (DYRK1B (human)): 97.9%
- residual activity (ROCK1 (human)): 102%
- residual activity (PRKCB1 (human)): 98.4%
- residual activity (HIPK4 (human)): 99.5%
- residual activity (FGR (human)): 94%
- residual activity (CHEK2 (human)): 100%
- residual activity (BMX (human)): 109%
- residual activity (SGK3 (human)): 102%
- residual activity (WEE1 (human)): 97.5%
- residual activity (GSK3B (human)): 98.1%
- residual activity (JAK2 JH1 JH2 (human)): 101%
- residual activity (CDK6 CCND3 (human)): 92.7%
- residual activity (NEK11 (human)): 92.5%
- residual activity (SLK (human)): 94.6%
- residual activity (AURKA (human)): 108%
- residual activity (CSK (human)): 99.3%
- residual activity (GRK6 (human)): 105%
- residual activity (CSNK2A2 (human)): 92.9%
- residual activity (DMPK (human)): 101%
- residual activity (DAPK3 (human)): 101%
- residual activity (MAP3K10 (human)): 101%
- residual activity (MERTK (human)): 106%
- residual activity (FRK (human)): 101%
- residual activity (FES (human)): 105%
- residual activity (PRKCH (human)): 108%
- residual activity (STK4 (human)): 96.2%
- residual activity (PRKCD (human)): 101%
- residual activity (BRSK2 (human)): 98.6%
- residual activity (NEK4 (human)): 90.3%
- residual activity (NTRK2 (human)): 81.7%
- residual activity (NEK1 (human)): 119%
- residual activity (STK10 (human)): 95%
- residual activity (CLK2 (human)): 80.7%
- residual activity (EPHA5 (human)): 104%
- residual activity (CSNK1D (human)): 90.9%
- residual activity (HIPK2 (human)): 91.8%
- residual activity (TEC (human)): 89%
- residual activity (ERBB2 (human)): 104%
